Laboratory results from PubChem BioAssay AID179 (DTP/NCI, 2004).
“And” between values parts separate entries of the source, which are not always exact repeats. Equal entries are not always repeated. The source made the active and inactive calls.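 How the source made its calls: active means compounds giving half or more protection of infected cells from virus-caused growth loss, again on retest; inactive means the rest.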

Tested on: CEM cells HIV-1 protection, formazan growth assay
Test: NCI AIDS Antiviral Assay
Details: for IC50: measured here: growth of uninfected CEM cells
Procedure, shortened: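 Human CEM cells, uninfected and HIV-1-infected, exposed to five drug concentrations; growth measured by soluble formazan assay and scored as percent protection from infection, with protecting compounds retested.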

SMILES	EC50 [µM]	IC50	outcome
O=C(c1ccccc1)C(Nc1nc2nc(-c3ccccc3)c(-c3ccccc3)n2[nH]1)c1ccccc1 (centres undefined)	> 200	27.5 µM	–
O=C(c1cc(Cl)ccc1Cl)N1CCN(C(=O)c2cc(Cl)ccc2Cl)CC1	> 200	> 200 µM	–
COc1ccc(C(Nc2ccc([N+](=O)[O-])cc2)P(=O)(c2ccccc2)c2ccccc2)cc1 (centres undefined)	> 200	10.5 µM	–
O=C(O)c1c[nH]c2cc(O)ccc2c1=O	> 200	> 200 µM	–
O=C1C2CC3OC3CC2C(=O)N1CCCCCCN1C(=O)C2CC3OC3CC2C1=O (centres undefined)	> 200	> 200 µM	–
COc1ccc(SCc2cc(OC)c(OC)c(OC)c2)cc1OC	> 200	45.7 µM	–
CCOC(=O)C(=O)Nc1cc(Cl)ccc1Cl	> 363	> 363 µM	–
Brc1ccccc1/C=C\C1(c2ccccc2)OCCO1	> 200	4.37 µM	–
Cc1ccc(S(=O)(=O)NCCSCCSCCNS(=O)(=O)c2ccc(C)cc2)cc1	> 38.9	> 38.9 µM	–
CCOC(=O)C1=C(C)N(C2OC(COC(C)=O)C(OC(C)=O)C(OC(C)=O)C2OC(C)=O)C(=O)NC1c1ccccc1 (centres undefined)	> 31.6	> 31.6 µM	–
Cn1nnn2c(-c3ccccc3)nnc12	> 891	> 891 µM	–
O=C1OC(c2ccccc2)=N/C1=C\c1cc(Cl)ccc1Cl	> 6.31	> 6.31 µM	–
COc1ccccc1N1CCN(CCCNC(=O)c2cc(Cl)c(N)c(Cl)c2)CC1	> 200	89.1 µM	–
NC1=NCCS1	> 70.8	> 70.8 µM and 32.4 µM	–
CC1OC(OCC2OC(Oc3c(-c4ccc(O)cc4)oc4cc(O)cc(O)c4c3=O)C(OC3OCC(O)(CO)C3O)C(O)C2O)C(O)C(O)C1O (centres undefined)	> 347	> 347 µM	–
OC[C@H]1CCCC1O (some centres undefined)	–	–	inactive

SMILES	EC50 [µM]	IC50	outcome
CCCNC(=O)N(CC)S(=O)(=O)c1ccc(Cl)cc1	–	–	inactive
COCCOCCOCCOc1cccc2c1C(=O)c1cccc(OCCOCCOCCOC)c1C2=O	–	–	inactive
Cc1cc2c(cc1-c1cc3c(cc1C)C(C(C)C)=C(O)C(=O)/C3=C\Nc1c(C)n(C)n(-c3ccccc3)c1=O)/C(=C/Nc1c(C)n(C)n(-c3ccccc3)c1=O)C(=O)C(O)=C2C(C)C	> 200	34.7 µM	–
Cn1c(O)c(N=Nc2ccccc2[N+](=O)[O-])c2ccccc21	> 200	> 200 µM	–
CCCCCCCCCCNC(=S)OC	–	–	inactive
COC(=O)[C@H](Cc1ccccc1)NC(=O)/C(=C/C(C)C)NC(=O)[C@H](CCSC)NC=O	> 550	> 100 µM	–
O=C(NCP(=O)(Oc1ccccc1)Oc1ccccc1)OCc1ccccc1	> 200	162 µM	–
O=CC(O)C(O)C(O)C1CNC(=S)O1 (centres undefined)	> 200	> 200 µM	–
Nc1nc(O)c2ncn([C@H]3CC[C@@H](CO)O3)c2n1	1.74	> 200 µM	–
O=c1nc(SSc2ccn(C3OC(CO)C(O)C3O)c(=O)n2)ccn1C1OC(CO)C(O)C1O (centres undefined)	> 200	2.63 µM	–
C=CN(C=C)C(=O)Cn1cc(-c2ccccc2)nn1	> 200	> 200 µM	–
Cc1cn(C(C)OCCN(O)C(N)=O)c(=O)[nH]c1=O (centres undefined)	–	–	inactive
CCN(CC)CCCC(C)Nc1c2ccc(Cl)cc2nc2c(Cl)cc(Cl)cc12 (centres undefined)	> 200	7.94 µM	–
Cn1c(-c2ccccc2)cc(-c2ccc3c(c2)OCO3)c1-c1ccsc1	> 200	> 200 µM	–
O=C1C(Br)=CC2(C=C1Br)CCNc1c(O)c3c4c(c12)=NCCC=4C=N3	> 2	0.0891 µM	–
CCC/C(Cl)=N/OC(NC(=O)OCC)(C(F)(F)F)C(F)(F)F	> 200	10 µM	–
